The text below walks through data of a melting point compilation (Tetko et al.; mined from patent text by program, amines drawn as free bases though some values may be those of a salt).

Compound `COc1cc(OC)c2c(=O)[nH]c(-c3cccc(-c4ccc(S(C)=O)cc4)n3)nc2c1` (configuration not stated) returned a melting point of 281 to 282 °C.

In turn, `Cn1nc(-c2ccc(C(=O)N3CCN(C4CCCC4)CC3)cc2)ccc1=O` had a melting point of 177 to 179 °C.

The compound `CCN(CC)C(=O)Cc1cc(C(C)C)c(O)cc1C` had a melting point of 138 to 139 °C.

Compound `CC(C)Oc1ccc(-c2[nH]c(-c3ccc([N+](=O)[O-])cc3)nc2C(=O)Nc2nccs2)cc1` came in with a melting point of 267 to 270 °C.

Compound `O=C(O)CCCCC[C@H]1CC[C@@H](O)CC1` showed a melting point of 83 to 85 °C.

In turn, `CC(C)OC(=O)c1cc(-n2c(=O)[nH]c3c(c2=O)CCC3)c(F)cc1F` showed a melting point of 231 to 234 °C.

Take `Cc1cccc2c1CCC2=NNC(=N)N`: the melting point is over 300 °C.

As for `CC(=O)Nc1ccc(S(=O)(=O)Nc2cc(Cl)nc(N3CCCC3)n2)cc1`, the melting point lay in the range of 229 to 233 °C.

In turn, `CN(C)CCNC(=O)N1CCN(c2ccc(Cl)c(Cl)c2)CC1` registered a melting point of 80 to 83 °C.

The compound `COc1ccc(CS(=O)CC(=O)NO)cc1OC` (configuration not stated) yielded a melting point of 202 °C.

As for `O=C(O)C(=O)N1CCC(=Cc2ccccc2)CC1`, the melting point was determined as 125 °C.

On to `O=S1(=O)c2ccccc2-c2nc3ccccc3c(Cl)c21`, for which the melting point fell in the range of 266 to 269 °C.

Consider `Cc1c(NC(=O)c2ccc(OCc3ccccc3)cc2F)ccc2cc(CN3CCCC3)cnc12`, for which the melting point fell in the range of 176 to 177 °C.

For the compound `NCC(=O)SCC(Cc1ccccc1)C(=O)Nc1cccc(C(=O)O)c1` (configuration not stated), the melting point is 91 to 96 °C.

In turn, `CCCc1c(OC(C)c2cccc(C(=O)O)c2)ccc(C(C)=O)c1O` (configuration not stated) yielded a melting point of 101 to 103 °C.

Regarding `O=C(Nc1ccc(OCc2ccoc2)c2ccccc12)c1cc(F)cc(N2CCCCC2)c1`, the melting point was in the range of 152 to 153 °C.

On to `CC(C)(C)c1cc(I)c2c(c1)CNC1(O2)C2CC3CC(C2)CC1C3` (configuration not stated), for which the melting point is 162 to 164 °C.

Turning to `COc1ccc(C(=NO)c2cccc(F)c2F)c(O)c1Cl`, the melting point lay within 198 to 199 °C.

`O=C(Nc1ccccc1)Nc1ccccn1` registered a melting point of 186 to 188 °C.

For the compound `CC#CCOc1ccc(S(=O)(=O)NC2(C(=O)NO)CCCCC2)cc1`, the melting point lay in the range of 82 to 84 °C.

For the compound `CC(=O)SCCC(=O)N1CCN(C)CC1C(=O)O` (configuration not stated), the melting point is 92 to 98 °C.

In the case of `CCCc1[nH]c2cc(C(=O)O)ccc2c1C(=O)C1CCCCC1`, the melting point lay within 217 to 218 °C.

Consider `COC(=O)c1[nH]c2c(Cl)ccc(Cl)c2c1C`, for which the melting point fell in the range of 110 to 111 °C.

`COc1cc2ccc(-c3cc(C(=O)O)cs3)cc2cc1C12CC3CC(CC(C3)C1)C2` returned a melting point of 314 to 316 °C.

With `Cc1cc(C)c(-c2nc(-c3ccc(O)cc3O)nc(-c3ccc(O)cc3O)n2)c(C)c1`, the melting point fell in the range of 230 to 234 °C.

`COc1ccc(C=CC(=O)N2CCc3c([nH]c4ccccc34)C2c2ccc3c(c2)OCO3)cc1O` (configuration not stated) came in with a melting point of 213 °C.

For `N#CN=C1SCCN1Cc1c(Cl)ccc(C(=O)O)c1Cl`, the melting point worked out at 208 °C.

`Cc1nn(C)c2c(Nc3ccc(S(C)(=O)=O)cc3)nc(-c3ccc(F)cc3)nc12` returned a melting point of 216 to 218 °C.

In turn, `CCc1nc2c(C)c(N)c(C)nc2[nH]1` displayed a melting point of 153 to 155 °C.

On to `COc1ccccc1Oc1c(Cl)nc(N2CCOCC2)nc1OCCOCc1ccccc1`, for which the melting point was 133 to 134 °C.

`Cc1nc(-c2ccc(OC(F)(F)F)cc2)ccc1CO`: the melting point was in the range of 68 to 69 °C.

In turn, `COP(=S)(OC)Oc1nc(OCc2ccccc2)sc1C#N` returned a melting point of 47 °C.

In turn, `CCn1c(C)c(C(C)=O)c(N)c1-c1ccccc1` came in with a melting point of 107 to 108 °C.

Take `COC(=O)c1cc(CS(=O)c2ccccc2)cnc1C1=NC(C)(C(C)C)C(=O)N1` (configuration not stated): the melting point was in the range of 132 to 136 °C.

Compound `Cc1cc2ncnn2nc1OCCOCCN1CCC(OC(c2ccccc2)c2ccccc2)CC1` yielded a melting point of 80 to 82 °C.

Take `CCOC(=O)Oc1ncc(F)c(N=CN(C)C)n1`: the melting point is 124 to 126 °C.

As for `CCCc1c(OCCCCCCCC(=O)OC)ccc(C(C)=O)c1O`, the melting point was 39 to 41 °C.

The compound `COc1cc(C(=O)C=Cc2cc(O)c(O)c([N+](=O)[O-])c2)cc(OC)c1OC` gave a melting point of 213 to 216 °C.

Compound `COc1ccc2c(C3CCN(CCCn4c(=O)[nH]c5ccccc54)CC3)noc2c1` had a melting point of 176 to 178 °C.

`COc1ncccc1C(=O)NC1CN(C)CCn2c1nc(-c1ccncn1)cc2=O` (racemic) showed a melting point of 228 to 230 °C.

For `NS(=O)(=O)c1nc2ccc(OC(=O)c3ccccc3)cc2s1`, the melting point lay within 208 to 210 °C.

`CCc1coc2c(Cc3ccc(C(C)C)cc3)c(C)cc(C)c12`: the melting point was 62 to 64 °C.

`CSC1C(=O)Nc2c(C(=O)c3ccc(F)cc3)cc(F)cc21` (configuration not stated) displayed a melting point of 171 to 172 °C.

In the case of `COC(=O)c1c(C)nc2c(c(-c3ccccc3)nn2C)c1-c1ccc(F)cc1`, the melting point was in the range of 142 to 144 °C.

On to `CC(Cl)COC(C)c1ccc(O)cc1` (single isomer, unassigned; (+)), for which the melting point is 50 to 51 °C.

In turn, `CCOc1ccc(-n2c(C(C)N(Cc3cccnc3)C(=O)OC(C)(C)C)nc3ccccc3c2=O)cc1` (configuration not stated) showed a melting point of 67.5 °C.

`Nc1nonc1C(=O)NCCCCCC(=O)NO` had a melting point of 150 to 152 °C.

In turn, `CCC1(c2cccs2)OCC(=O)Nc2ccc(-c3sc(C#N)cc3C)cc21` (configuration not stated) showed a melting point of 182 to 184 °C.

`CCC1CCC(=O)C=C1c1ccc(OC(CC)C(=O)O)c(Cl)c1Cl` (configuration not stated) gave a melting point of 160 to 162 °C.

For the compound `CNc1cc(NC)c(C(=O)NCCC(=O)OC)cc1NC(=O)c1ccc(C#N)cc1`, the melting point fell in the range of 208 to 210 °C.

With `CN(Cc1ccccc1)Cc1c(-c2ccc(N)cc2)sc2c1c(=O)n(-c1ccccc1)c(=O)n2Cc1c(F)cccc1F`, the melting point was in the range of 205 to 207 °C.

For `C[C@@H](OS(C)(=O)=O)C(=O)N1C(=O)N(C)C[C@H]1C(=O)OC(C)(C)C`, the melting point was 97 to 100 °C.

As for `CCOC(=O)c1cn2c(=O)n(CC)c3ccccc3n2c1=O`, the melting point lay within 235 to 237 °C.

On to `O=C(Nc1ccc(N2CCCCC2)cc1)N(C[C@@H]1CCC[C@H](CN(C(=O)Nc2ccc(N3CCCCC3)cc2)C2CCCCC2)C1)C1CCCCC1`, for which the melting point lay in the range of 174 to 178 °C.

The compound `COc1cc2cc(-c3c[nH]c4ccccc34)cnc2cc1OC` gave a melting point of 204 to 206 °C.

`CCOC(=O)N1C(=O)NC(C)=C(C(=O)OC)C1c1cccc(Cl)c1Cl` (configuration not stated) displayed a melting point of 159 to 160 °C.

Take `CCCCC[C@@H](CNC(=O)Nc1c(N(C)C)ncnc1N(C)C)c1cccc2c1OCO2`: the melting point lay in the range of 151 to 152 °C.

In the case of `COc1ccccc1Oc1c(NS(=O)(=O)c2ccc3c(c2)OCO3)nc(-c2ccnc(-c3nnn[nH]3)c2)nc1OCCO`, the melting point was 227 to 229 °C.

The compound `COc1ccc(-c2ccc(C(=O)NN)cc2)cc1OC1CCCC1` showed a melting point of 167 to 168 °C.

In turn, `Cc1nnc(C=Cc2ccccc2OCC(O)CNC2CC2)s1` (configuration not stated) gave a melting point of 144 to 145 °C.

In the case of `COC(=O)NCCOc1cc(-c2ccccc2)on1`, the melting point fell in the range of 95 to 96 °C.

Regarding `COc1nc(NC(=O)NS(=O)(=O)c2ccccc2OC(F)F)nc(OCC(F)(F)F)n1`, the melting point lay within 155 to 157 °C.

For orientation: melting point means the temperature of the solid-liquid transition.
